Assay results as given in patent publication US20240148821A1, “PHARMACEUTICAL USE OF CYCLIC PEPTIDE COMPOUND” (CHUGAI SEIYAKU KABUSHIKI KAISHA, priority 2021, published 2024).
Numbered stars: 1 amine (or outer) side, 2 acyl side, 3 side chain; on linkers, the order of the positions; unused ones are H or OH. Bridge positions count the residues as written; N and C are the ends. Square brackets hold non-standard residues; d marks the D form. Peptide text beside a SMILES is read from it. * marks the point of attachment. hPhe(3-Cl-4-CF3) = N[C@@H](CCc1ccc(C(F)(F)F)c(Cl)c1)C(=O)O; hPhe(3-F,4-CF3) = N[C@@H](CCc1ccc(C(F)(F)F)c(F)c1)C(=O)O; NMePhe(4-CF3) = CN[C@@H](Cc1ccc(C(F)(F)F)cc1)C(=O)O; X37 = CC(C)(C)NC(=O)COC[C@H](CC(=O)[*:1])N[*:2]; NMeAla(4-thiazolyl) = CN[C@@H](Cc1cscn1)C(=O)O; NMePhe(3-CN) = CN[C@@H](Cc1cccc(C#N)c1)C(=O)O; NMeAbu(4,4,4-F3) = CN[C@@H](CC(F)(F)F)C(=O)O; NMePhe(4-Me) = CN[C@@H](Cc1ccc(C)cc1)C(=O)O; hPhe(3-Cl) = N[C@@H](CCc1cccc(Cl)c1)C(=O)O; NMeGly(cPent) = CN[C@H](C(=O)O)C1CCCC1; NMeCha = CN[C@@H](CC1CCCCC1)C(=O)O; NMeChg = CN[C@H](C(=O)O)C1CCCCC1; NMeI = CC[C@H](C)[C@H](NC)C(=O)O; Cha = N[C@@H](CC1CCCCC1)C(=O)O; NMeD = CN[C@@H](CC(=O)O)C(=O)O; NMeL = CN[C@@H](CC(C)C)C(=O)O; NMeV = CN[C@H](C(=O)O)C(C)C; d(β3hA) = C[C@@H](N)CC(=O)O; NMeS = CN[C@@H](CO)C(=O)O; Morpholide = C1CN(*)CCO1; NMeA = CN[C@@H](C)C(=O)O; NMeAib = CNC(C)(C)C(=O)O; Piperidide = C1CCN(*)CC1; Ac5c = NC1(C(=O)O)CCCC1; Aze = O=C(O)[C@@H]1CCN1; Nleu = CC(C)CNCC(=O)O; βAla = NCCC(=O)O; Sar = CNCC(=O)O; Propyl = CCC*

System: Human pancreatic cancer cell line AsPC-1 (G12D mutation Kras)
Assay: AsPC-1 cell growth inhibition (AsPC-1 CGI)
Type: cell-based
Conditions: read-out: AsPC-1 cell growth inhibition, 50% growth inhibitory concentration (IC50 value); 96 hours, CellTiter-Glo, values classified in ranges
Protocol: Test compounds were serially dilated with dimethyl sulfoxide, and 200 nL was then dispensed to a U-bottom 96-well plate using Labcyte Echo. […] The cell suspension was dispensed to a. plate containing a test compound at 100 μL per well and incubated at 37° C. in a 5% carbon dioxide gas incubator. 96 hours later, 80 μL of CellTiter-Glo (Promega) was added to each well and fluorescence was measured.

| SMILES | IC50 [nM] |
| --- | --- |
| CC[C@H](C)[C@@H]1NC(=O)[C@H](C)N(C)C(=O)C[C@@H](C(=O)N2CCCCC2)N(C)C(=O)[C@H](C2CCCCC2)N(C)C(=O)C2(CCCC2)NC(=O)[C@@H]2CCCN2C(=O)[C@H](CCc2cccc(Cl)c2)NC(=O)CN(C)C(=O)[C@H](CC2CCCCC2)N(C)C(=O)CN(C)C(=O)CN(C)C1=O [Compound 954] ([NMeA]I[Sar][Sar][NMeCha][Sar][hPhe(3-Cl)]P[Ac5c][NMeChg][NMeD]-Piperidide; lactam N-11) | > 500 |
| CC[C@H](C)[C@@H]1NC(=O)[C@H](CC(C)C)N(C)C(=O)C[C@@H](COCC(=O)NC(C)(C)C)NC(=O)[C@H](C(C)C)N(C)C(=O)C2(CCCC2)NC(=O)[C@@H]2CCCN2C(=O)[C@H](CCc2ccc(C(F)(F)F)c(Cl)c2)NC(=O)CN(C)C(=O)[C@H](CC2CCCCC2)N(C)C(=O)CN(C)C(=O)CN(C)C1=O [Compound 955] ([NMeL]I[Sar][Sar][NMeCha][Sar][hPhe(3-Cl-4-CF3)]P[Ac5c][NMeV]; linker N-C via X37) | > 500 |
| CC[C@H](C)[C@@H]1NC(=O)[C@H](CC(C)C)N(C)C(=O)C[C@@H](C(=O)N2CCCCC2)N(C)C(=O)[C@H](CC(C)C)NC(=O)C(C)(C)N(C)C(=O)[C@H](CC(C)C)NC(=O)[C@H](CCc2ccc(C(F)(F)F)c(F)c2)NC(=O)CN(C)C(=O)[C@H](CC2CCCCC2)N(C)C(=O)CN(C)C(=O)CN(C)C1=O [Compound 969] ([NMeL]I[Sar][Sar][NMeCha][Sar][hPhe(3-F,4-CF3)]L[NMeAib]L[NMeD]-Piperidide; lactam N-11) | > 500 |
| CC[C@H](C)[C@@H]1NC(=O)[C@H](CC(C)C)N(C)C(=O)C[C@@H](C)NC(=O)[C@H](C(C)C)N(C)C(=O)C2(CCCC2)NC(=O)[C@@H]2CCCN2C(=O)[C@H](CCc2ccc(C(F)(F)F)c(Cl)c2)NC(=O)CN(C)C(=O)[C@H](CC2CCCCC2)N(C)C(=O)CN(C)C(=O)CN(CC(C)C)C1=O [Compound 970] (cyclo([Ac5c][NMeV][d(β3hA)][NMeL]I[Nleu][Sar][NMeCha][Sar][hPhe(3-Cl-4-CF3)]P)) | > 500 |
| CCCOC[C@H]1C(=O)N(C)CC(=O)N[C@@H](CCc2ccc(C(F)(F)F)c(Cl)c2)C(=O)N2CCC[C@H]2C(=O)NC2(CCCC2)C(=O)N(C)[C@@H](C2CCCC2)C(=O)N(C)[C@H](C(=O)N2CCOCC2)CC(=O)N(C)[C@@H](CC(C)C)C(=O)N[C@@H]([C@@H](C)CC)C(=O)N(C)[C@@H](C)C(=O)N2CC[C@H]2C(=O)N1C [Compound 974] ([NMeL]I[NMeA][Aze][NMeS](Propyl)[Sar][hPhe(3-Cl-4-CF3)]P[Ac5c][NMeGly(cPent)][NMeD]-Morpholide; lactam N-11) | ≤ 20 |
| CC[C@H](C)[C@@H]1NC(=O)[C@H](CC(C)C)N(C)C(=O)C[C@@H](C)NC(=O)[C@H](C(C)C)N(C)C(=O)C2(CCCC2)NC(=O)[C@@H]2CCCN2C(=O)[C@H](CCc2ccc(C(F)(F)F)c(Cl)c2)NC(=O)CN(C)C(=O)[C@H](Cc2cccc(C#N)c2)N(C)C(=O)CN(C)C(=O)CN(C)C1=O [Compound 975] (cyclo([Ac5c][NMeV][d(β3hA)][NMeL]I[Sar][Sar][NMePhe(3-CN)][Sar][hPhe(3-Cl-4-CF3)]P)) | > 500 |
| CC[C@H](C)[C@@H]1NC(=O)[C@H](CC(C)C)N(C)C(=O)CCNC(=O)[C@H](C(C)C)N(C)C(=O)C2(CCCC2)NC(=O)[C@@H]2CCCN2C(=O)[C@H](CCc2ccc(C(F)(F)F)c(Cl)c2)NC(=O)CN(C)C(=O)[C@H](CC2CCCCC2)N(C)C(=O)CN(C)C(=O)CN(C)C1=O [Compound 979] (cyclo([Ac5c][NMeV][βAla][NMeL]I[Sar][Sar][NMeCha][Sar][hPhe(3-Cl-4-CF3)]P)) | > 500 |
| CC[C@H](C)[C@@H]1NC(=O)[C@H](CC(F)(F)F)N(C)C(=O)C[C@@H](C(=O)N2CCOCC2)N(C)C(=O)[C@H](C2CCCCC2)N(C)C(=O)C2(CCCC2)NC(=O)[C@@H]2CCCN2C(=O)[C@H](CCc2ccc(C(F)(F)F)c(Cl)c2)NC(=O)CN(C)C(=O)[C@H](Cc2ccc(C(F)(F)F)cc2)N(C)C(=O)CN(C)C(=O)CN(C)C1=O [Compound 981] ([NMeAbu(4,4,4-F3)]I[Sar][Sar][NMePhe(4-CF3)][Sar][hPhe(3-Cl-4-CF3)]P[Ac5c][NMeChg][NMeD]-Morpholide; lactam N-11) | ≤ 20 |
| CC[C@H](C)[C@@H]1NC(=O)[C@H](CC(C)C)N(C)C(=O)C[C@@H](C(=O)N(C)C)N(C)C(=O)[C@H]([C@@H](C)CC)N(C)C(=O)[C@H](C(C)C)NC(=O)[C@H](Cc2cscn2)N(C)C(=O)[C@H](CCc2ccc(C(F)(F)F)c(Cl)c2)NC(=O)CN(C)C(=O)[C@H](Cc2ccc(C)cc2)N(C)C(=O)[C@@H]2CCN2C(=O)[C@H](C)N(C)C1=O [Compound 982] ([NMeL]I[NMeA][Aze][NMePhe(4-Me)][Sar][hPhe(3-Cl-4-CF3)][NMeAla(4-thiazolyl)]V[NMeI][NMeD]-NMe2; lactam N-11) | > 500 |
| CC(C)C[C@H]1C(=O)N[C@@H](CC2CCCCC2)C(=O)N(C)CC(=O)N(C)CC(=O)N(C)[C@@H](CC2CCCCC2)C(=O)N(C)CC(=O)N[C@@H](CCc2ccc(C(F)(F)F)c(Cl)c2)C(=O)N2CCC[C@H]2C(=O)NC2(CCCC2)C(=O)N(C)[C@@H](C(C)C)C(=O)N(C)[C@H](C(=O)N2CCCCC2)CC(=O)N1C [Compound 986] ([NMeL][Cha][Sar][Sar][NMeCha][Sar][hPhe(3-Cl-4-CF3)]P[Ac5c][NMeV][NMeD]-Piperidide; lactam N-11) | > 500 |
